Calls of active or inactive are those of the source.
What was measured:
[1] = Trypanosoma cruzi growth suppression in host cells – NIH3T3 host cells, beta-gal luminescence, confirmation (AID 2044); type: functional, cell-based;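 further: intracellular parasites grown in NIH/3T3 mouse fibroblasts as host cells; luminescent beta-galactosidase reporter signal from transgenic T. cruzi replicating inside host cells; inhibitors lower the luminescence signal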
[2] = NIH3T3 cell viability loss – ATP luminescence, mouse fibroblasts, counter-screen, dose response (AID 2010); type: functional, cell-based;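 further: cells exposed to compound for about 90 hours before reading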
Nonstructural protein 1 = Nonstructural protein 1 (Influenza A virus, UniProt Q194T2); type: functional, Influenza A virus (A/California/07/2009(H1N1))
Sequence of Nonstructural protein 1 (Q194T2 whole entry): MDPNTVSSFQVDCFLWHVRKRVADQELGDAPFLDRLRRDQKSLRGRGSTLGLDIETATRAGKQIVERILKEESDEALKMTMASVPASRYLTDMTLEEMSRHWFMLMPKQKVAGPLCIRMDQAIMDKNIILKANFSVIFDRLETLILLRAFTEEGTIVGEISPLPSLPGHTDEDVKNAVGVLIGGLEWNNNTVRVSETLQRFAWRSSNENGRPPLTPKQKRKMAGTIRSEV

[3] = molecular target: T1, Calpain-2 catalytic subunit (Sus scrofa, UniProt P43367); assay: m-calpain protease blockers, concentration series – biochemical, fluorogenic peptide substrate, dose response (AID 1420); type: functional
T1 sequence (P43367 whole entry): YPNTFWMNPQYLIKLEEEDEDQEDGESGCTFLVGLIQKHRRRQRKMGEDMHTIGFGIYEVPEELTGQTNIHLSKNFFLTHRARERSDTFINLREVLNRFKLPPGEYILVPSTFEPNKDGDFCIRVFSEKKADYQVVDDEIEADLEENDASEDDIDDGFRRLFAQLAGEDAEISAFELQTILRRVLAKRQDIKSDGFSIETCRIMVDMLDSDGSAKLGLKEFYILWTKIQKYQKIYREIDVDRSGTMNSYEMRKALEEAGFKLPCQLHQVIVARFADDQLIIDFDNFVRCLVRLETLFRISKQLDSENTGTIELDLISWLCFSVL

Cytochrome P450 3A4 = Cytochrome P450 3A4 (Homo sapiens, UniProt P08684); conditions: Potency;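 further: confirmatory qHTS run detecting inhibitors and substrates of CYP3A4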
Sequence of Cytochrome P450 3A4 (P08684 whole entry): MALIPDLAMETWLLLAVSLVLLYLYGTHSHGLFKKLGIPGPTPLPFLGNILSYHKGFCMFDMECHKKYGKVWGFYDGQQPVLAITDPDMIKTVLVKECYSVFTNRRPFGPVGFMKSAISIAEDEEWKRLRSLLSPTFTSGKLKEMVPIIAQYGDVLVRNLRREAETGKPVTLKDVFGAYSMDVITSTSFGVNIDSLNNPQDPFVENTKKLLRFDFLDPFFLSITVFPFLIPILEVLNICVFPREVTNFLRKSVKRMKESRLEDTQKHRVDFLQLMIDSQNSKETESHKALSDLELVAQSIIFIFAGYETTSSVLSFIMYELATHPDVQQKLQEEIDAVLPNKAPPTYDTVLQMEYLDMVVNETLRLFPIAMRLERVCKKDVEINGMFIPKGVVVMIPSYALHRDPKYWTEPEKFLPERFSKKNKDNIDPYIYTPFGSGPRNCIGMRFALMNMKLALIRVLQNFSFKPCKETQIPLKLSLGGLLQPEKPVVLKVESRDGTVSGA

[4] = molecular target: T2, Short transient receptor potential channel 4 (Mus musculus, UniProt Q9QUQ5); assay: calcium entry via TRPC4 opening agents – cell-based, HEK293 TRPC4/mu-opioid, Fluo-4 calcium, dose response (AID 434937); type: functional
T2 sequence (Q9QUQ5 whole entry): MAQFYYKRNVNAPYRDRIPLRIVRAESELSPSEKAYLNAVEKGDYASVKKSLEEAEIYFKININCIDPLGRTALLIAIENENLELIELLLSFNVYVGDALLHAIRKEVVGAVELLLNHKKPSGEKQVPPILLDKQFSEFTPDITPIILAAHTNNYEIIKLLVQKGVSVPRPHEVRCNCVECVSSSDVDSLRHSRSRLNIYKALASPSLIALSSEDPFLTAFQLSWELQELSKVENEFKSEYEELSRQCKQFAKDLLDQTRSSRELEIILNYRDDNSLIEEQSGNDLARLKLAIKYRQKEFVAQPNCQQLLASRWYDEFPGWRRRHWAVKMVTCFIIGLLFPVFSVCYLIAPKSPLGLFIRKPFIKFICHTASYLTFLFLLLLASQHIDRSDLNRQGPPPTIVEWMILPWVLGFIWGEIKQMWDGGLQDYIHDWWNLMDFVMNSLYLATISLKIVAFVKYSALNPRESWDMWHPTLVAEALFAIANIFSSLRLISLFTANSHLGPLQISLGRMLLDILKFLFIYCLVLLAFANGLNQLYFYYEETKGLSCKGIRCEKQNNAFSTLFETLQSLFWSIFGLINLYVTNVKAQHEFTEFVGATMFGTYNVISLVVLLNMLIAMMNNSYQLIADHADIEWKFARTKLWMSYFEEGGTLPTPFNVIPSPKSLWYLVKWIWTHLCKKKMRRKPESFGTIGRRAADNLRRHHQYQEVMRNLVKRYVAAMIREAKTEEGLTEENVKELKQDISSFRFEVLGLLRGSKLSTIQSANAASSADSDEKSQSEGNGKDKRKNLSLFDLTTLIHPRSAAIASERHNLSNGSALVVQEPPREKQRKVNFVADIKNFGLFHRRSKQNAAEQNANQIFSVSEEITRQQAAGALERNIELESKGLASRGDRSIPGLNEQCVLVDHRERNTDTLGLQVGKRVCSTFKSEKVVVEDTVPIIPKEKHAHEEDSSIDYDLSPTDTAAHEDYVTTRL

[5] = microbe, parasite or virus in culture; type: functional; conditions: Mycobacterium tuberculosis
[6] = molecular target: T3, Ubiquitin-conjugating enzyme E2 N (Homo sapiens, UniProt P61088); type: functional;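 further: Dose-response confirmation in a TR-FRET assay detecting UBC13-driven polyubiquitin chain formation, inhibition measured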
T3 sequence (P61088 whole entry): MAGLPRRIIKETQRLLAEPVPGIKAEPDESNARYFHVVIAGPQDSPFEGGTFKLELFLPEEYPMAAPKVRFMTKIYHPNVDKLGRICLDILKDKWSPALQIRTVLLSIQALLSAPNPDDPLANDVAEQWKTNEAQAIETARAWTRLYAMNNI

INS1 = assay: INS-1E survival protection against cytokine death – cell-based, luminescence, retest, dose response (AID 449756); type: functional; conditions: Rattus norvegicus;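 further: cell death triggered by IL-1 beta plus TNF-alpha plus IFN-gamma mixture; protective hits raise ATP signal compared with cytokine alone wells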
Cytochrome P450 2D6 = Cytochrome P450 2D6 (Homo sapiens, UniProt P10635);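 further: CYP2D6 member of a cytochrome P450 panel assay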
Sequence of Cytochrome P450 2D6 (P10635 whole entry): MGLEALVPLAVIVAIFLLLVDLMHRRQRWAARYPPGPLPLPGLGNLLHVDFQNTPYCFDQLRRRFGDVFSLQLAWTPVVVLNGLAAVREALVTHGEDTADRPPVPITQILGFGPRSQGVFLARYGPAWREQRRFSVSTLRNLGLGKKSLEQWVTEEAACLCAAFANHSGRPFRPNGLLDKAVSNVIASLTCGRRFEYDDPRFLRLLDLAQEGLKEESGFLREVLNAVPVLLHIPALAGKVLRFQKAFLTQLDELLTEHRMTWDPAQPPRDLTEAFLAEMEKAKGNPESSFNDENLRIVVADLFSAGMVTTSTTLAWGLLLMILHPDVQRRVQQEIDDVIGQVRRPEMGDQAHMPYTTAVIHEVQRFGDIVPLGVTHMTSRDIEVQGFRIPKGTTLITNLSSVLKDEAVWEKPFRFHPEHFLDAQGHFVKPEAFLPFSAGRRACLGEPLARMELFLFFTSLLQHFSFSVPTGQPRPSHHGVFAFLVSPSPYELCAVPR

[7] = molecular target: Induced myeloid leukemia cell differentiation protein Mcl-1 (Homo sapiens, UniProt Q07820); type: functional
Sequence of Induced myeloid leukemia cell differentiation protein Mcl-1 (Q07820 whole entry): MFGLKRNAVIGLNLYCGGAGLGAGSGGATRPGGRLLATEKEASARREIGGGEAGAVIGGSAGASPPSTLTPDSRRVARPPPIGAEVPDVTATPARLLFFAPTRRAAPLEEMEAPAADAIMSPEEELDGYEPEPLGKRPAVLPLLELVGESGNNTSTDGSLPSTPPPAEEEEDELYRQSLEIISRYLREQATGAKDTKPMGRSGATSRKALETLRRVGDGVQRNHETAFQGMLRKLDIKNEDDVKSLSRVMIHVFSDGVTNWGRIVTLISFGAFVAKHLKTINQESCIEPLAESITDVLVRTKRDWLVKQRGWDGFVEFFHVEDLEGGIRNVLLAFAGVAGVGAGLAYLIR

[8] = Luminescence Cell-Based Dose Confirmation HTS to Identify Inhibitors of Platelet Dense Granule Release. [Related pubchem assays: 1663 (Primary HTS), 1678 (Summary of Project)]; type: functional
[9] = molecular target: Luciferin 4-monooxygenase (Photinus pyralis, UniProt P08659); assay: inhibition of purified Photinus pyralis luciferase – biochemical, luminescence, dose response (AID 1891)
Sequence of Luciferin 4-monooxygenase (P08659 whole entry): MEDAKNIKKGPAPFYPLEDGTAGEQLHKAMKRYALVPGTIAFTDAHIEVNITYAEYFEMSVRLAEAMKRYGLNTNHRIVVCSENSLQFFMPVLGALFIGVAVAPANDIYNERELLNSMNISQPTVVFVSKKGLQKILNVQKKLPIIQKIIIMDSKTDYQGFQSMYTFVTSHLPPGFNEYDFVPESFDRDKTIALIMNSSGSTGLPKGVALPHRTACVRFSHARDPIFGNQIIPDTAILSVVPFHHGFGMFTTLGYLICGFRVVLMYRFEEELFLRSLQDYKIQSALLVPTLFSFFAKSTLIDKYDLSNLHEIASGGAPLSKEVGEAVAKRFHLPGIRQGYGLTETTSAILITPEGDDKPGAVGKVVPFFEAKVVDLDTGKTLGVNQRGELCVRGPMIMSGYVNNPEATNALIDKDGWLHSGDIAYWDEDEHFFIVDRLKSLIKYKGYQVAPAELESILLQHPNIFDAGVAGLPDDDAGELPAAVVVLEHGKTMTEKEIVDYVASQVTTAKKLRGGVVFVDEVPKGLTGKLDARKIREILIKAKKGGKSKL

[10] = viability of uninfected HEp-2 cells – cell-based, HTS, cytotoxicity control for RSV inhibitor project, dose response (AID 2410); type: functional; conditions: human respiratory syncytial virus
[11] = molecular target: T4, RNA-binding protein pos-1 (Caenorhabditis elegans, UniProt G5EF15); assay: disruptors of C. elegans POS-1 RNA interaction – biochemical, fluorescence polarization, dose response (AID 1964);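 further: purified POS-1 fused to maltose binding protein made in E. coli; potency of compounds blocking POS-1 binding to fluorescent RNA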
T4 sequence (G5EF15 whole entry): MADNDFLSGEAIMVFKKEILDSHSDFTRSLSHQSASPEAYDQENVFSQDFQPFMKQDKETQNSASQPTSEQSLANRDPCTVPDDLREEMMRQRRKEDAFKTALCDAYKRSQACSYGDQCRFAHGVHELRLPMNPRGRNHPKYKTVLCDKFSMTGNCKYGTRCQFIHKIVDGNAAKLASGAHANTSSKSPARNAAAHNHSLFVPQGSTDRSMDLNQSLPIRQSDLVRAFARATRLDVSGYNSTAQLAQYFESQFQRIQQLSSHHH

[12] = molecular target: T5, Zinc finger protein mex-5 (Caenorhabditis elegans, UniProt Q9XUB2); assay: potency of MEX-5 RNA-binding blockers – biochemical, C. elegans, fluorescence polarization, dose response (AID 1960)
T5 sequence (Q9XUB2 whole entry): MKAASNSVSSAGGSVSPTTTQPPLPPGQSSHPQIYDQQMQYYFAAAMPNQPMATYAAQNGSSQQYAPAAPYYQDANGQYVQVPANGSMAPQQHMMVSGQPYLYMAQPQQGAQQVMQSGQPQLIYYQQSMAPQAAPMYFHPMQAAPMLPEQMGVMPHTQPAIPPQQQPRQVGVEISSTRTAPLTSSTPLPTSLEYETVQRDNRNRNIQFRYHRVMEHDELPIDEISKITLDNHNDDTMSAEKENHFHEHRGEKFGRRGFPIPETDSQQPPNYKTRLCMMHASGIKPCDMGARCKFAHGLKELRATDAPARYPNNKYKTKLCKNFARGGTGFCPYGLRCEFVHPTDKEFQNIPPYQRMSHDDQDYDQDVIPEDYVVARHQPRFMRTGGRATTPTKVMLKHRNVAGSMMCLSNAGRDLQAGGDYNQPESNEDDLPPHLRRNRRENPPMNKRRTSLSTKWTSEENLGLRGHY

[13] = tested on: Streptococcus sp. 'group A'; assay: Streptococcus pyogenes SK(-)GAS viability under kanamycin – luminescence, BacTiterGlo, confirmation, counter-screen for streptokinase expression inhibitor project, dose response (AID 1900); type: functional, organism-based
Streptococcus = assay: GAS UMAA2166 growth inhibition – luminescence, BacTiterGlo, counter-screen for streptokinase expression inhibitor project, dose response (AID 1915); type: functional, organism-based;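 further: potency for reduction of bacterial viability or growth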
Streptokinase A = molecular target: T6, Streptokinase A (Streptococcus pyogenes serotype M1, UniProt P10520); assay: viability-normalized secreted streptokinase activity reduction – plasminogen activation absorbance, OD405, dose response (AID 1914); type: functional, Streptococcus pyogenes M1 GAS;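 further: secreted streptokinase activity via plasminogen activation per viability signal from cell pellet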
T6 sequence (P10520 whole entry): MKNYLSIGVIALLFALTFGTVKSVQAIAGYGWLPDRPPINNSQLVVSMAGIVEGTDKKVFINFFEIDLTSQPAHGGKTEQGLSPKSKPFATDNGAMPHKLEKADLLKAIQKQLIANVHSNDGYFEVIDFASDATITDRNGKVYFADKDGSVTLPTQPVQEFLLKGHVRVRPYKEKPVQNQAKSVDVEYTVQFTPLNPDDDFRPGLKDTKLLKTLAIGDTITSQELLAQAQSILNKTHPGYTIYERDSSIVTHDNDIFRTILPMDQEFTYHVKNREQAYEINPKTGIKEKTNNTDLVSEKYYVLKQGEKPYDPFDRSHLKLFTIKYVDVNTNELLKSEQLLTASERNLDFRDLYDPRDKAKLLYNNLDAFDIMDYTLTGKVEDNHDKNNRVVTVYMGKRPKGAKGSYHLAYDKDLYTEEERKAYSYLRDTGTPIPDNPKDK

[14] = Luminescence Cell-Based Dose Response HTS to Identify Inhibitors of 5'UTR Stem-Loop Driven Prion Protein mRNA Translation in H4 Neuroglioblastoma Cells. [Related pubchem assays: 1827 (Project Summary), 1813 (Primary HTS)]; type: functional
[15] = luciferase reporter signal suppression in cells – H4 neuroglioma cells, luminescence, dose response (AID 1990); type: functional, cell-based
[16] = alpha-synuclein stem-loop luciferase translation blockers – H4 neuroglioma cells, luminescence, confirmation (AID 1988); type: functional, cell-based

Cc1cc2ccccc2n1CCNC(=O)C(C)Oc1ccccc1 (stereo not given)
EC50 [1]: 0.705 µM (active) | EC50 [2]: 13.8 µM (active) | IC50 (Nonstructural protein 1): 64.6 µM (active)

O=[N+]([O-])c1ccc(N=Nc2ccc(O)c3ccccc23)cc1
IC50 (Nonstructural protein 1): 25.9 µM (active)

COC(=O)c1cccc(NC(=O)c2cccc(OC)c2)c1
IC50 [3]: 14.6 µM (not active)

C=CC(C1=CC(=O)C=CC1=O)c1ccccc1 (stereo not given) [DALBERGIONE]
AC50 (Cytochrome P450 3A4): 31.6 µM (inconclusive)

CC(=O)OC1CC2C(C)(C)C(O)C=C[C@@]2(C)C2CC[C@@]3(C)C(c4ccoc4)OC(=O)C4OC43[C@]12C (stereo not given in full)
AC50 (Cytochrome P450 3A4): 12.6 µM (inconclusive)

CC(CN1CCCC(C(N)=O)C1)c1ccccc1 (stereo not given)
EC50 [4]: 1.19 µM (active)

N=C1C=CC(=C(c2cccc(N)c2)c2cccc(N)c2)C=C1
AC50 (Cytochrome P450 3A4): 5.01 µM (active)

COC(=O)C1=C(c2ccc(OCc3ccccc3)cc2)C[C@@H]2CC[C@H]1N2C(=O)NC1CCN(Cc2ccccc2)CC1
CC50 [5]: 17.6 µM (active) | IC50 [6]: > 20 µM (inactive) | AC50 (INS1): 3.96 µM (active)

COc1ccc2nc(NN=C(C)c3ccccn3)cc(C)c2c1
IC50 (Nonstructural protein 1): 7.94 µM (active)

COc1cccc(O)c1O [3-METHOXYCATECHOL]
AC50 (Cytochrome P450 3A4): 20 µM (inconclusive)

CCN(CCCNS(=O)(=O)c1cc(-c2cc(C)no2)ccc1C)Cc1ccccc1
EC50 [4]: 0.299 µM (active)

CC(N)Cc1c[nH]c2cc3c(cc12)OCCO3 (stereo not given)
EC50 [4]: 1.33 µM (active)

COc1ccc(CNn2c(C)nc3ccccc3c2=O)cc1
AC50 (Cytochrome P450 2D6): 25.1 µM (inconclusive) | IC50 [6]: > 20 µM (inactive)

CC(=O)OC1CCC2(C)C3=C(CCC2C1(C)C)[C@]1(C)CCC(C(C)CCC=C(C)C)[C@]1(C)CC3 (stereo not given in full)
AC50 (Cytochrome P450 3A4): 31.6 µM (inconclusive)

Cc1ccc(NS(=O)(=O)c2cc([N+](=O)[O-])ccc2NNC(=S)Nc2cccc(Cl)c2)c(C)c1
IC50 [7]: 5.74 µM (not active) | IC50 (Nonstructural protein 1): 17 µM (active)

C#Cc1cccc(C(=O)NC2CCCN(C3Cc4ccccc4C3)C2)c1 (stereo not given)
EC50 [4]: 0.596 µM (active)

COc1cccc(/C=N/Nc2ccnc(O)n2)c1O
EC50 [8]: 10.7 µM (active) | EC50 [9]: > 112 µM (not active) | IC50 (Nonstructural protein 1): 10.6 µM (active) | AC50 (INS1): 0.67 µM (active)

CCOC(=O)c1c(C)[nH]c(C(=O)COC(=O)C23CC4CC(CC(Cl)(C4)C2)C3)c1C
CC50 [10]: > 50 µM (active) | IC50 [3]: 4.08 µM (not active)

CC(=O)c1c(C(C)=O)c(C)n(C(c2ccccc2)c2ccccc2)c1C
IC50 [3]: > 50 µM (not active)

CCOc1ccccc1C1CC(c2ccc(Cl)cc2)Nc2nc(N)nn21 (stereo not given)
EC50 [4]: 11.9 µM (active)

Cc1cc(C(=O)O)ccc1-n1c(C)cc(/C=C(/C#N)C(=O)Nc2ccccc2)c1C
EC50 [11]: > 300 µM (not active) | EC50 [12]: > 300 µM (not active) | IC50 [3]: 12.6 µM (not active)

O=C(O)CC(NC(=O)C1c2ccccc2Oc2ccccc21)c1ccc(OC2CCCC2)cc1 (stereo not given)
IC50 [3]: 6.06 µM (not active)

O=C(Nc1ccccc1C(=O)O)c1cccc(NC(=O)c2ccc(Br)o2)c1
EC50 [13]: 6.27 µM (active) | EC50 (Streptococcus): 9.37 µM (active) | EC50 (Streptokinase A): 6.41 µM (active) | IC50 [3]: 12.1 µM (not active)

CC(C)CC1(C(=O)NCc2ccccn2)C=CCN1C(=O)c1ccccc1 (stereo not given)
AC50 (Cytochrome P450 3A4): 15.8 µM (inconclusive)

CCN1C(NCc2ccc(OC)cc2)=N[C@@H](CCc2ccccc2)[C@H](C(=O)NCc2ccc(OC)cc2)[C@H]1C
IC50 [6]: > 20 µM (inactive)

O=C(CN1C(=O)C2CCCCC2C1=O)Nc1nc(-c2ccccn2)cs1 (stereo not given)
EC50 [14]: 14.3 µM (active) | EC50 [15]: > 120 µM (not active) | EC50 [16]: > 120 µM (not active) | IC50 (Nonstructural protein 1): 16 µM (active)

C=C(C)C(O)/C=C/C=C/c1ccccc1 (stereo not given)
AC50 (Cytochrome P450 3A4): 3.98 µM (inconclusive)
